From paper PMC9151520 (Archives of Toxicology, 2022)
Values joined by “and” are separate entries in the source; they are usually repeats but may differ in a detail not shown here. Identical values can stand only once. Like-named read-outs stand apart in the source and are kept apart here.

Tests used:
[1] = tested on: p53 signaling (p53RE-bla HCT-116 cells); test: cells; assay type: cell-based
[2] = tested on: p53RE-bla HCT-116 cells
[3] = tested on: p53 signaling (p53RE-bla HCT-116 cells)
[4] = tested on: p53 signaling (p53RE-bla HCT-116 cells); remark: listed apart in the source
[5] = Homo sapiens, HCT-116, read-out: EC50, p53 activation, primary screening
[6] = Homo sapiens, HCT-116, read-out: Efficacy, p53 activation, primary screening
[7] = read-out: p53 activation EC50, cherry pick confirmation
[8] = read-out: p53 activation EC50, primary screening
[9] = Homo sapiens, HCT-116, read-out: p53 activation EC50, cherry pick confirmation
[10] = Homo sapiens, HCT-116, read-out: p53 activation EC50, primary screening
[11] = Homo sapiens, HCT-116, read-out: p53 activation efficacy, cherry pick confirmation
[12] = Homo sapiens, HCT-116, read-out: p53 activation efficacy, primary screening

Structure (SMILES) | Efficacy, p53 activation, cherry pick confirmation [1] | EC50, viability, cherry pick confirmation [2] | EC50, viability, primary screening [2] | Efficacy, viability, cherry pick confirmation [2] | Efficacy, viability, primary screening [2] | EC50, p53 activation, cherry pick confirmation [3] | Viability EC50, cherry pick confirmation [2] | Viability EC50, primary screening [2] | Viability efficacy, cherry pick confirmation [2] | Viability efficacy, primary screening [2] | p53 activation EC50, cherry pick confirmation [3] | p53 activation EC50, primary screening [3] | p53 activation efficacy, cherry pick confirmation [3] | p53 activation efficacy, primary screening [3] | p53 activation EC50, cherry pick confirmation [4] | p53 activation EC50, primary screening [4] | p53 activation efficacy, cherry pick confirmation [4] | p53 activation efficacy, primary screening [4] | EC50 [1, 10] [µM] | Emax [1, 12] [%] | other results
Oc1ccc(Oc2ccccc2)cc1 [4-Phenoxyphenol] | inactive | inactive | inactive | inactive | inactive | inactive |  |  |  |  |  |  |  |  |  |  |  |  |  |  | EC50, p53 activation, cherry pick confirmation [1]: inactive; EC50 [1, 5]: 25.6 µM; Emax [1, 6]: 32.4%; EC50, p53 activation, primary screening [3]: inactive; Efficacy, p53 activation, cherry pick confirmation [3]: inactive; Efficacy, p53 activation, primary screening [3]: inactive; EC50, p53 activation, cherry pick confirmation [4]: inactive; EC50, p53 activation, primary screening [4]: inactive; Efficacy, p53 activation, cherry pick confirmation [4]: inactive; Efficacy, p53 activation, primary screening [4]: inactive
Nc1ncn([C@@H]2O[C@H](CO)[C@@H](O)[C@H]2O)c(=O)n1 [5-Azacytidine] |  |  |  |  |  |  | inactive | inactive | inactive | inactive | inactive | inactive | inactive | inactive | inactive | inactive | inactive | inactive |  |  | p53 activation efficacy, cherry pick confirmation [1]: 71.649; p53 activation efficacy, primary screening [1]: 59.244; EC50 [1, 7]: 17.7 µM; EC50 [1, 8]: 11.2 µM
Nc1cnn([C@@H]2O[C@H](CO)[C@@H](O)[C@H]2O)c(=O)n1 [6-Azacytidine] | 68.68 | inactive | inactive | inactive | inactive | inactive |  |  |  |  |  |  |  |  |  |  |  |  |  |  | Efficacy, p53 activation, primary screening [1]: 56.623; EC50 ([1]; read-out: EC50, p53 activation, cherry pick confirmation): 1.1 µM; EC50 ([1]; read-out: EC50, p53 activation, primary screening): 0.807 µM; EC50, p53 activation, primary screening [3]: inactive; Efficacy, p53 activation, cherry pick confirmation [3]: inactive; Efficacy, p53 activation, primary screening [3]: inactive; EC50, p53 activation, cherry pick confirmation [4]: inactive; EC50, p53 activation, primary screening [4]: inactive; Efficacy, p53 activation, cherry pick confirmation [4]: inactive; Efficacy, p53 activation, primary screening [4]: inactive
CC(=O)OC[C@H]1O[C@@H](n2ncc(=O)[nH]c2=O)[C@H](OC(C)=O)[C@@H]1OC(C)=O [6-Azaribine] |  |  |  |  |  |  | inactive | inactive | inactive | inactive | inactive | inactive | inactive | inactive | inactive | inactive | inactive | inactive | 0.432 | 60.2 | EC50 [1, 9]: 0.603 µM; Emax [1, 11]: 79.7%
S=c1[nH]cnc2nc[nH]c12 [6-Mercaptopurine] |  |  |  |  |  |  | inactive | inactive | inactive | inactive | inactive | inactive | inactive | inactive | inactive | inactive | inactive | inactive | 7.97 | 80.4 | EC50 [1, 9]: 9.76 µM; Emax [1, 11]: 41.7%
Cc1cc(=O)oc2cc(N(C)C)ccc12 [7-(Dimethylamino)-4-methylcoumarin] |  |  |  |  |  |  | inactive | inactive | inactive | inactive | inactive |  | inactive |  | inactive |  | inactive |  |  |  | p53 activation efficacy, cherry pick confirmation [1]: 79.8427; p53 activation efficacy, primary screening [1]: 78.774; EC50 [1, 7]: 29.5 µM; EC50 [1, 8]: 35.2 µM
CCN(CC)c1ccc2c(C)cc(=O)oc2c1 [7-Diethylamino-4-methylcoumarin] |  |  |  |  |  |  |  |  |  |  |  |  |  |  |  |  |  |  |  |  | EC50 ([1]; read-out: p53 activation EC50, No MS): 13 µM and 25.2 µM; Viability EC50, HLM [2]: inactive; Viability EC50, No MS [2]: inactive; Viability EC50, RLM [2]: inactive; Viability Efficacy, HLM [2]: inactive; Viability Efficacy, No MS [2]: inactive; Viability Efficacy, RLM [2]: inactive; p53 activation EC50, HLM [3]: inactive; EC50 ([3]; read-out: p53 activation EC50, HLM): 41.1 µM; p53 activation EC50, RLM [4]: inactive; p53 activation Efficacy, RLM [4]: inactive
C[C@]12CC[C@@H]3c4ccc(O)cc4CC[C@H]3[C@@H]1CC[C@H]2O [17alpha-Estradiol] |  |  |  |  |  |  | inactive | inactive | inactive | inactive | inactive | inactive | inactive | inactive | inactive | inactive | inactive | inactive | 12.3 | 54.4 | p53 activation EC50, cherry pick confirmation [1]: inactive; p53 activation efficacy, cherry pick confirmation [1]: inactive
C#C[C@]1(O)CC[C@H]2[C@@H]3CCc4cc(O)ccc4[C@H]3CC[C@@]21C [17alpha-Ethinylestradiol] |  |  |  |  |  |  | inactive | inactive | inactive | inactive | inactive | inactive | inactive | inactive | inactive | inactive | inactive | inactive | 11.9 | 38.5 | EC50 [1, 9]: 3.62 µM; Emax [1, 11]: 50.6%
CC(=O)O[C@@H]1C(=O)O[C@H]2[C@@H]1OC(=O)[C@@H]2OC(C)=O [Aceglatone] | inactive | inactive | inactive | inactive | inactive | inactive |  |  |  |  |  |  |  |  |  |  |  |  |  |  | EC50, p53 activation, cherry pick confirmation [1]: inactive; EC50 [1, 5]: 21.5 µM; Emax [1, 6]: 37.3%; EC50, p53 activation, primary screening [3]: inactive; Efficacy, p53 activation, cherry pick confirmation [3]: inactive; Efficacy, p53 activation, primary screening [3]: inactive; EC50, p53 activation, cherry pick confirmation [4]: inactive; EC50, p53 activation, primary screening [4]: inactive; Efficacy, p53 activation, cherry pick confirmation [4]: inactive; Efficacy, p53 activation, primary screening [4]: inactive
